The text below walks through data of patent US20250188043A1 (ReproNovo SA, priority 2023, published 2025).

Converted amounts (≈) assume the structure as drawn. A value given as a limit tells only on which side of the number the result lay.

One data set can be described thus: Kinetic solubility. The data set is classed as physicochemical. The note with it: aqueous buffer, kinetic from dmso stock; room temperature, aqueous solutions between pH 1.0 and pH 6.8.
The nature of a further data set: Thermodynamic solubility. The note with it: thermodynamic from solid. The data set is classed as physicochemical.
Data set [1] is described as follows: Dynamic vapor sorption (DVS). The data set is classed as physicochemical. Here is the method: Crystalline Form A leflutrozole was determined to be non-hygroscopic.
A further data set concerns the target T1, CYP1A2 (Homo sapiens, UniProt P05177).
T1 construct: assessed by pooled human liver microsomes using enzyme selective probe substrates; from tissue; host or cells: pooled human liver microsomes
T1 sequence (P05177 1-516): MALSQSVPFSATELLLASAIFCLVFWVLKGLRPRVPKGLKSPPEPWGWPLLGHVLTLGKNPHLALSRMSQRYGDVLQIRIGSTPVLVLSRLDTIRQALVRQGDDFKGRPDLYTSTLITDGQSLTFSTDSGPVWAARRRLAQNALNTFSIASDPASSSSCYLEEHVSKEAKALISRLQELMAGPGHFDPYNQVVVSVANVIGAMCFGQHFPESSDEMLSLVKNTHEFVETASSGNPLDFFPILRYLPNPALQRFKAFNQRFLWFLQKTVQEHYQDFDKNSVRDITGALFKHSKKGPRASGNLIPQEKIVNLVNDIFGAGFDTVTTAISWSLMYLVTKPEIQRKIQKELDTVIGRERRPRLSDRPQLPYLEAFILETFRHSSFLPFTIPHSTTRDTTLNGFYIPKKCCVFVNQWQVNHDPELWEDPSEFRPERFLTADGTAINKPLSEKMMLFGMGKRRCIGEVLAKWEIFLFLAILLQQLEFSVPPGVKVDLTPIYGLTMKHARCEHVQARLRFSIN
The experiment in a line: CYP inhibition, pooled human liver microsomes, probe substrates. The note with it: up to 100 μM. The data set is classed as in vitro ADME.

The test system of the next data set is CYP3A4/5. The description is as above. The data set is classed as in vitro ADME. To be noted: up to 100 μM.
In a further data set the target is T2, CYP2C8 (Homo sapiens, UniProt P10632).
T2 construct: assessed by pooled human liver microsomes using enzyme selective probe substrates; from tissue; host or cells: pooled human liver microsomes
T2 sequence (P10632 1-490): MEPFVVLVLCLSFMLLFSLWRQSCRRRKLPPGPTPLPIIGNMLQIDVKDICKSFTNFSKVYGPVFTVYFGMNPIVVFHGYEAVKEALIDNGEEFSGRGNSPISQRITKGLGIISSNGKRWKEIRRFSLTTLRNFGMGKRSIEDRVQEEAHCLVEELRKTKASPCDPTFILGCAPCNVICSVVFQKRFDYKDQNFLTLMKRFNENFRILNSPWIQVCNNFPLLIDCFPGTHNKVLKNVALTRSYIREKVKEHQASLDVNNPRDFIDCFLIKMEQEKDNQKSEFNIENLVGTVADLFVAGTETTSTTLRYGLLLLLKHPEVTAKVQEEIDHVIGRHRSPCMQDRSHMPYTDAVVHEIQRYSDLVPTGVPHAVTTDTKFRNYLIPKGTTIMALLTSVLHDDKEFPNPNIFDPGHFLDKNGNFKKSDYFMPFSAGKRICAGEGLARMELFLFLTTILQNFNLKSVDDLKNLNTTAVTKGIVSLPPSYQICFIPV
The description is as above. The data set is classed as in vitro ADME. To be noted: up to 100 μM.

For `N#Cc1ccc(C(F)(c2ccc(C#N)cc2)n2cncn2)cc1` [Form A leflutrozole, 4-[(4-cyanophenyl)-fluoro-(1,2,4-triazol-1-yl)methyl]benzonitrile], the kinetic solubility in “Kinetic solubility” was ~0.0607 µg/mL (≈ 0.2 µM). The solubility (thermodynamic) was < 30 µg/mL in the data set “Thermodynamic solubility” (0.05 M potassium biphthalate buffer, aqueous buffer, 0.05M buffer pH 3 - Potassium Biphthalate); < 30 µg/mL in the data set “Thermodynamic solubility” (0.05 M potassium chloride buffer, aqueous buffer, 0.05M buffer pH 1 - Potassium Chloride); < 30 µg/mL in the data set “Thermodynamic solubility” (0.05 M potassium phosphate buffer, aqueous buffer, 0.05M buffer pH 6.86 - Potassium Phosphate); < 30 µg/mL in “Thermodynamic solubility” (0.05 M sodium acetate buffer, aqueous buffer, 0.05M buffer pH 4.63 - Sodium Acetate); < 30 µg/mL in “Thermodynamic solubility” (1% Cremophor EL in water, aqueous with cosolvent or surfactant or cyclodextrin); < 30 µg/mL in “Thermodynamic solubility” (1% Tween 80 in water, aqueous with cosolvent or surfactant or cyclodextrin). Further, the thermodynamic solubility in the data set “Thermodynamic solubility” (1% sodium dioctyl sulfosuccinate in water, aqueous with cosolvent or surfactant or cyclodextrin) was 170 µg/mL (≈ 561 µM); in the data set “Thermodynamic solubility” (1% sodium lauryl sulfate in water, aqueous with cosolvent or surfactant or cyclodextrin) it was 470 µg/mL (≈ 1550 µM); in “Thermodynamic solubility” (10% Cremophor EL in water, aqueous with cosolvent or surfactant or cyclodextrin), 190 µg/mL (≈ 626 µM); in “Thermodynamic solubility” (10% PEG400 in water, aqueous with cosolvent or surfactant or cyclodextrin), < 30 µg/mL; in “Thermodynamic solubility” (10% PG in water, aqueous with cosolvent or surfactant or cyclodextrin), < 30 µg/mL; in “Thermodynamic solubility” (10% ethanol in water, aqueous with cosolvent or surfactant or cyclodextrin), < 30 µg/mL. The solubility (thermodynamic) in the data set “Thermodynamic solubility” (20% hydroxypropyl β-cyclodextrin in water, aqueous with cosolvent or surfactant or cyclodextrin) was 870 µg/mL (≈ 2870 µM); in the data set “Thermodynamic solubility” (20% sulfobutyl ether β-cyclodextrin (Captisol) in water, aqueous with cosolvent or surfactant or cyclodextrin) it was 1050 µg/mL (≈ 3460 µM); in “Thermodynamic solubility” (Cremophor EL, organic solvent or mixture), 280 µg/mL (≈ 923 µM); in the data set “Thermodynamic solubility” (FaSSIF) it was < 30 µg/mL; in the data set “Thermodynamic solubility” (FeSSIF) it was < 30 µg/mL; in the data set “Thermodynamic solubility” (Miglyol, oil or lipid), 720 µg/mL (≈ 2370 µM). The thermodynamic solubility in “Thermodynamic solubility” (SGF, simulated gastric fluid) was < 30 µg/mL; in the data set “Thermodynamic solubility” (aqueous buffer, 0.05M buffer pH 7.4 - Potassium Phosphate), < 30 µg/mL; in “Thermodynamic solubility” (aqueous buffer, 0.05M buffer pH 9 - Boric Acid), < 30 µg/mL; in the data set “Thermodynamic solubility” (aqueous buffer, pH 12 - 0.1N Sodium Hydroxide) it was < 30 µg/mL; in “Thermodynamic solubility” (ethanol, organic solvent or mixture), 3840 µg/mL (≈ 12700 µM); in “Thermodynamic solubility” (polyethylene glycol 400, organic solvent or mixture), 6230 µg/mL (≈ 20500 µM). Further, the thermodynamic solubility was 2270 µg/mL (≈ 7480 µM) in the data set “Thermodynamic solubility” (propylene glycol, organic solvent or mixture) and < 30 µg/mL in the data set “Thermodynamic solubility” (water). In data set [1], the hygroscopicity entry is reported as “non-hygroscopic”. The “maximum water uptake (DVS)” value in data set [1] (25° C., up to 95% relative humidity) is < 0.2%.

Turning to `N#Cc1ccc(C(F)(c2ccc(C#N)cc2)n2cncn2)cc1` [leflutrozole, 4-[(4-cyanophenyl)-fluoro-(1,2,4-triazol-1-yl)methyl]benzonitrile], the IC50 at CYP1A2, in the data set on CYP3A4/5 and against CYP2C8 was > 50 µM each time.

The term solubility (kinetic) denotes the concentration staying in solution when a stock, usually in DMSO, is diluted into the medium. What is called solubility (thermodynamic) is the concentration in solution at equilibrium with solid. What is called IC50 is the concentration at which inhibition is half-maximal. A high value points to weaker potency.
